Measured values published in US9926332B2, “Dihydro-oxazinobenzodiazepine compounds, a process for their preparation and pharmaceutical compositions containing them” (priority 2014, dated 2018).
Read-outs that look alike come from different tables or passages of the source.

Tests used:
[1] = molecular target: T1, α1 subunit of the human GABAA receptor in association with the beta2 (short) and gamma2 (long) subunits (Homo sapiens, UniProt P14867+P18507+P47870); test: GABA-induced membrane potential response (FMP dye, FlexStation3) in HEK-293 cells expressing GABAA α1; format: cell-based
T1 construct: expressed in transfected cells; host or cells: HEK-293
T1 sequence (P14867 28-456): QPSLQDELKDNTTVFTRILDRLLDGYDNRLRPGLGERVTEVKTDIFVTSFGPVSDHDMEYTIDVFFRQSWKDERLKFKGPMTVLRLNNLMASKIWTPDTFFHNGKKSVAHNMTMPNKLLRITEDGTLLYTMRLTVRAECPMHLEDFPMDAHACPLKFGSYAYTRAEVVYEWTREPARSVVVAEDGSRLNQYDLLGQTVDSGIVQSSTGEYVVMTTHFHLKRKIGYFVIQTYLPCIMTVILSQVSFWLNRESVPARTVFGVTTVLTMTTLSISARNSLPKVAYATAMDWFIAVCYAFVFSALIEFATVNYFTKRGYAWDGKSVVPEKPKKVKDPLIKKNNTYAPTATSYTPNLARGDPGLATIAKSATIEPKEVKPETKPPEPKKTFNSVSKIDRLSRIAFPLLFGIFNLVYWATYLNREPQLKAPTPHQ
T1 sequence (P47870 26-474 isoform P47870-1 partner limits assumed): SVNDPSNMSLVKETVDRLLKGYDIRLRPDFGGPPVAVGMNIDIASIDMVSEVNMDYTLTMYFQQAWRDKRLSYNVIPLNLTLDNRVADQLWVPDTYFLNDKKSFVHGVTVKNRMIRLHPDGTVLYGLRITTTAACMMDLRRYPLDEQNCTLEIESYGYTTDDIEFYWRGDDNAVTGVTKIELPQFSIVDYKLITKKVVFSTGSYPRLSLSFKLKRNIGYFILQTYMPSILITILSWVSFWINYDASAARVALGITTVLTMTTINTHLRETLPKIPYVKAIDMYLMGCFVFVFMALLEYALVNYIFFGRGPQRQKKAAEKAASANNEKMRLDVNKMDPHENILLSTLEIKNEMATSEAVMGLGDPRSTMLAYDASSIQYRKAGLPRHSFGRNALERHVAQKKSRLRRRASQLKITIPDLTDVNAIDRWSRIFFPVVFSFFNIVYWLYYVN
T1 sequence (P18507 40-475 partner): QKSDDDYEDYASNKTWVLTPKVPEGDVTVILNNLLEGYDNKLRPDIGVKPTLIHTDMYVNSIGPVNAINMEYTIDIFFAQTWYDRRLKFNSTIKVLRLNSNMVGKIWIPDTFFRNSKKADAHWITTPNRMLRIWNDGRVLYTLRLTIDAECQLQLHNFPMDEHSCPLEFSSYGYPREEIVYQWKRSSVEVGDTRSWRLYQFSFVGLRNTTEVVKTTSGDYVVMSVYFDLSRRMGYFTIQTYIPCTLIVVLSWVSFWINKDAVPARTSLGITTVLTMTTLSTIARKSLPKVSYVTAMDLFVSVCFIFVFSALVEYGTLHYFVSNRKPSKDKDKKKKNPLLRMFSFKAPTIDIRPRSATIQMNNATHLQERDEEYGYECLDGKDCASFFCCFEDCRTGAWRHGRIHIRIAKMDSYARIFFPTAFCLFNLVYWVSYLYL

[2] = molecular target: T2, α2 subunit of the human GABAA receptor in association with the beta2 (short) and gamma2 (long) subunits (Homo sapiens, UniProt P18507+P47869+P47870); test: GABA-induced membrane potential response (FMP dye, FlexStation3) in HEK-293 cells expressing GABAA α2; format: cell-based
T2 construct: expressed in transfected cells; host or cells: HEK-293
T2 sequence (P47869 29-451): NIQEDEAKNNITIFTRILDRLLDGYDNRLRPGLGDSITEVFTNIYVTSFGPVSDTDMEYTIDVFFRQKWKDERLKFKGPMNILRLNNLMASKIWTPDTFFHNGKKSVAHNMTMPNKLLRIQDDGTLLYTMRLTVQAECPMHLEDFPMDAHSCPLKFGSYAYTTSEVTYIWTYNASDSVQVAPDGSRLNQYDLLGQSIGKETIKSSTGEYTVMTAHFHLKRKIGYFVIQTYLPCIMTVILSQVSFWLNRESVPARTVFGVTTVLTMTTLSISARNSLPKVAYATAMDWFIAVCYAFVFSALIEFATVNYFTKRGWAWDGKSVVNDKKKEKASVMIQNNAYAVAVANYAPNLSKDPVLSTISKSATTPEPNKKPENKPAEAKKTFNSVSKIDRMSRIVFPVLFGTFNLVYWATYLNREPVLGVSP
T2 sequence (P47870 26-474 isoform P47870-1 partner limits assumed): as the sequence (P47870 26-474 isoform P47870-1 partner limits assumed) above
T2 sequence (P18507 40-475 partner): as the sequence (P18507 40-475 partner) above
Experimental: (§1) The compounds are tested on HEK-293 (Human Embryonic Kidney) cells stably expressing the […] or the α5 subunit of the human GABAA receptor in association with the beta2 (short) and gamma2 (long) subunits, thus forming heteropentameric GABAA receptors. The cells are maintained in the presence of a selection of three antibiotics—neomycin, zeocin and puromycin—in a Dulbecco medium (DMEM) containing 10% (v/v) foetal bovine serum The membrane potential is monitored using the fluorescent blue FMP dye (Molecular Devices), following the instructions of the manufacturer. On the day before the experiment, the cells are transferred to 96-well plates (in a density of 50,000 cells/well). 18-24 h later the cells are washed and incubated with the compounds under test plus the FMP dye. Recording of the fluorescence signal in a FlexStation3 plate reader (Molecular Devices, USA) is started 40 min later. After 30 sec of monitoring baseline fluorescence GABA is added to evoke a fluorescent signal reporting depolarisation of the membrane potential across the plasma membrane. The GABA induced responses are recorded for 90 seconds. Data are calculated by subtracting the average baseline value and computing the area under the curve of the fluorescence signal induced by GABA. The IC50 values for α5 and the EC50 values for α2 of the tested compounds are determined from log concentration versus response curves obtained by non-linear regression using SoftMax Pro software (Molecular Devices, USA).

[3] = molecular target: T3, α5 subunit of the human GABAA receptor in association with the beta2 (short) and gamma2 (long) subunits (Homo sapiens, UniProt P18507+P31644+P47870); test: GABA-induced membrane potential response (FMP dye, FlexStation3) in HEK-293 cells expressing GABAA α5; format: cell-based
T3 construct: expressed in transfected cells; host or cells: HEK-293
T3 sequence (P31644 32-462): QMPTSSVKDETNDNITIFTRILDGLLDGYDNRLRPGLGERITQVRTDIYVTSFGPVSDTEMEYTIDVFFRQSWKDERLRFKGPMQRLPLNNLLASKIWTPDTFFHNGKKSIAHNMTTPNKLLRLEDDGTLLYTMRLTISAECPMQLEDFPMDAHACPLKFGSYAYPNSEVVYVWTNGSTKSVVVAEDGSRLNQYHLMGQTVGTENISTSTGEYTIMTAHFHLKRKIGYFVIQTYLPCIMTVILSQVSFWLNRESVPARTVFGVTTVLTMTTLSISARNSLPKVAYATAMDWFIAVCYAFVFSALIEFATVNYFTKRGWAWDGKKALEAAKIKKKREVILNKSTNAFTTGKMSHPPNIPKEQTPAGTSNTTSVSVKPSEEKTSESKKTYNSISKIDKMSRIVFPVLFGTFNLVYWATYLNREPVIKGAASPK
T3 sequence (P47870 26-474 isoform P47870-1 partner limits assumed): as the sequence (P47870 26-474 isoform P47870-1 partner limits assumed) above
T3 sequence (P18507 40-475 partner): as the sequence (P18507 40-475 partner) above
Experimental: as §1

mice [4] = test: Novel object recognition test in mice; format: in vivo; settings: i.p. administration, FIG. 1 and FIG. 2
Source text: FIG. 1 and FIG. 2. […] Mean values±S.E.M. (n=8-11/group); Dunnett test following ANOVA (*:p<0.05, **:p<0.01, ***:p<0.001). Discrimination index: Duration of new object exploration (s)−Duration of familiar object exploration (s)/Duration of new object exploration (s)+Duration of familiar object exploration (s).
The novel object recognition test evaluates the ability of mice to detect novelty in an otherwise familiar environment. Subsequent a short exploratory period, mice are unable to discriminate between the familiar and the new object 24 hours later. […] Enhancement of the discrimination index is considered as a procognitive effect. The results are illustrated in FIG. 1 and FIG. 2.

rats = test: Social interaction test in rats; format: in vivo; settings: i.p. administration, FIG. 6
Source text: FIG. 6. […] Mean values±S.E.M. (n=12/group) Kruskal-Wallis ANOVA followed by Mann-Whitney U test: control vs. compound-treated groups (**:p<0.05).
The social interaction test is a model used to measure anxiolytic or anxiogenic behaviour in rodents. When a pair of unfamiliar rats is placed together in the open field the animals show specific social behaviours (sniffing, following, grooming, crawling over and under other rats). Anxiolytic compounds such as benzodiazepines increase in the time spent with social interactions. In our experiment rats were submitted to the social interaction test of anxiety 30 min after drug treatment. The social interaction test consisted of 10 min of social encounters between two animals that received the same pharmacological treatment. The results are illustrated in FIG. 6.

mice [5] = test: Prepulse inhibition test in mice, PCP-induced PPI disruption; format: in vivo; settings: i.p. administration, FIG. 4
Source text: FIG. 4. […] Mean values±S.E.M. (n=10-12/group) Student's t-test: vehicle vs. PCP-treated group (***p<0.001) Dunnett's test following ANOVA: PCP-treated vs. PCP+compound treated groups (#:p<0.05).
The startle reaction of a healthy rodents and humans to a strong acoustic stimulus is reduced by the prior presentation of a weak stimulus. The effect of the weak stimulus on the startle response has been termed prepulse inhibition (PPI). Reduced prepulse inhibition is a hallmark feature of attention-processing (sensorimotor gating) deficits in patients with schizophrenia and other psychotic disorders. Acute administration of phencyclidine (PCP), an antagonist of N-methyl D-aspartate (NMDA)-type glutamate receptors, disrupts PPI in rodents and this effect can be prevented by clinically effective antipsychotics. The results are illustrated in FIG. 4.

mice [6] = test: Light-dark test in mice; format: in vivo; settings: i.p. administration, FIG. 5
Experimental: FIG. 5. […] Mean values±S.E.M. (n=11-20/group) Student's t-test: vehicle vs. Diazepam-treated group (*p<0.05) Dunnett test following ANOVA: vehicle-treated vs. compound-treated groups (#:p<0.05).
The light-dark apparatus contains a light (brightly illuminated) and a dark compartment. A small opening connects the two parts. During the 5 minutes test mice were placed individually in the light compartment and allowed to explore the entire apparatus. The activity of animals was measured automatically by interruptions of horizontal and vertical infrared beams. An increase of time spent in the light area (increase in light horizontal time) is interpreted as an anxiolytic effect. The results are illustrated in FIG. 5.

[7] = HEK 293 cells expressing GABAA α1, expressed as % of GABA EC50, read-out: α1 IC50
[8] = HEK 293 cells expressing GABAA α5, expressed as % of GABA EC50, read-out: α5 IC50

| Structure (SMILES) | IC50 [1] | EC50 [2] | IC50 [3] | further results |
| --- | --- | --- | --- | --- |
| COc1ccc2oc(C3=NN=C(C)Cc4cc5c(cc43)OC(C)C(=O)N5)c(C)c2c1 (racemic) [Example 2, 6-(5-Methoxy-3-methyl-1-benzofuran-2-yl)-3,9-dimethyl-1,10-dihydro[1,4]oxazino[3,2-h][2,3]benzodiazepin-2(3H)-one] | > 10 µM | 0.8 µM | 0.8 µM |  |
| CC1=NN=C(c2sc3cc(Cl)ccc3c2C)c2cc3c(cc2C1)NC(=O)C(C)O3 (racemic) [Example 5, 6-(6-Chloro-3-methyl-1-benzothiophen-2-yl)-3,9-dimethyl-1,10-dihydro[1,4]oxazino[3,2-h][2,3]benzodiazepin-2(3H)-one] |  | 1.2 µM |  | IC50 [1, 7]: > 10 µM; IC50 [3, 8]: 0.9 µM |
| CCc1c(C2=NN=C(C)Cc3cc4c(cc32)OC(C)C(=O)N4)sc2ccc(Cl)cc12 (racemic) [Example 9, 6-(5-Chloro-3-ethyl-1-benzothiophen-2-yl)-3,9-dimethyl-1,10-dihydro[1,4]oxazino[3,2-h][2,3]benzodiazepin-2(3H)-one] |  | 1 µM |  | IC50 [1, 7]: > 10 µM; IC50 [3, 8]: 0.7 µM |
| COc1ccc2oc(C3=NN=C(C)Cc4cc5c(cc43)OC(C)C(=O)N5)c(C)c2c1 (single isomer, unassigned; (+)) [Example 4, (+)-6-(5-Methoxy-3-methyl-1-benzofuran-2-yl)-3,9-dimethyl-1,10-dihydro[1,4]oxazino[3,2-h][2,3]benzodiazepin-2(3H)-one] |  |  |  | Procognitive effect (discrimination index) in the object recognition model (mice [4]): Procognitive effects; Anxiolytic activity in the social interaction model (rats): Anxiolytic activity |
| CC1=NN=C(c2sc3ccc(Cl)cc3c2C)c2cc3c(cc2C1)NC(=O)C(C)O3 (single isomer, unassigned; (+)) [Example 25, (+)-6-(5-Chloro-3-methyl-1-benzothiophen-2-yl)-3,9-dimethyl-1,10-dihydro[1,4]oxazino[3,2-h][2,3]benzodiazepin-2(3H)-one] |  |  |  | Effect in the PCP-induced PPI disruption model (mice [5]): Ameliorating effect |
| CC1=NN=C(c2sc3ccc(Cl)cc3c2C)c2cc3c(cc2C1)NC(=O)C(C)O3 (single isomer, unassigned; (-)) [Example 26, (−)-6-(5-Chloro-3-methyl-1-benzothiophen-2-yl)-3,9-dimethyl-1,10-dihydro[1,4]oxazino[3,2-h][2,3]benzodiazepin-2(3H)-one] |  |  |  | Anxiolytic activity in Light-dark test (activity in the light compartment) (mice [6]): Anxiolytic activity |
| CC1=NN=C(c2sc3cccc(F)c3c2C)c2cc3c(cc2C1)NC(=O)C(C)O3 (centres unmarked) [Example 1, 6-(4-fluoro-3-methyl-1-benzothiophen-2-yl)-3,9-dimethyl-1,10-dihydro[1,4]oxazino[3,2-h][2,3]benzodiazepin-2(3H)-one] | > 10 µM | 3.5 µM | 0.7 µM |  |
| CC1=NN=C(c2sc3cc(Cl)c(F)cc3c2C)c2cc3c(cc2C1)NC(=O)C(C)O3 (centres unmarked) [Example 8, 6-(6-Chloro-5-fluoro-3-methyl-1-benzothiophen-2-yl)-3,9-dimethyl-1,10-dihydro[1,4]oxazino[3,2-h][2,3]benzodiazepin-2(3H)-one] | > 10 µM | 1 µM | 3 µM |  |
| CC1=NN=C(c2oc3ccc(Cl)cc3c2C)c2cc3c(cc2C1)NC(=O)C(C)O3 (centres unmarked) [Example 12, 6-(5-Chloro-3-methyl-1-benzofuran-2-yl)-3,9-dimethyl-1,10-dihydro[1,4]oxazino[3,2-h][2,3]benzodiazepin-2(3H)-one] | > 10 µM | 1 µM | 3 µM |  |
| CCc1ccc2oc(C3=NN=C(C)Cc4cc5c(cc43)OC(C)C(=O)N5)c(CC)c2c1 (centres unmarked) [Example 13, 6-(3,5-Diethyl-1-benzofuran-2-yl)-3,9-dimethyl-1,10-dihydro[1,4]oxazino[3,2-h][2,3]benzodiazepin-2(3H)-one] | > 10 µM | 1.1 µM | 1.3 µM |  |
| CC1=NN=C(c2oc3ccc(O)cc3c2C)c2cc3c(cc2C1)NC(=O)C(C)O3 (centres unmarked) [Example 14, 6-(5-Hydroxy-3-methyl-1-benzofuran-2-yl)-3,9-dimethyl-1,10-dihydro[1,4]oxazino[3,2-h][2,3]benzodiazepin-2(3H)-one] | 13.7 µM | 1 µM | 0.43 µM |  |
| CC1=NN=C(c2sc3ccc(Cl)cc3c2C)c2cc3c(cc2C1)NC(=O)C(C)O3 (centres unmarked) [Example 24, 6-(5-Chloro-3-methyl-1-benzothiophen-2-yl)-3,9-dimethyl-1,10-dihydro[1,4]oxazino[3,2-h][2,3]benzodiazepin-2(3H)-one] |  |  |  | Procognitive effect (discrimination index) in the object recognition model (mice [4]): Procognitive effects |
